Data on 8 compounds can be found in PubChem BioAssay (NCI).

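A five-concentration, 48-hour dose response in 96-well plates underlies each endpoint, interpolated linearly between surrounding concentrations. TGI: concentration producing complete growth inhibition.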 Bounds are passed on as bounds.

Some test systems named below: EKVX NSCLC; HOP-62 NSCLC; K-562 leukemia; MALME-3M melanoma; MCF7 breast; NCI-H23 lung; NCI-H522 lung; OVCAR-4 ovarian; RXF 393 renal; SF-295 CNS; SK-OV-3 ovarian; SN12C renal; SNB-19 CNS; T-47D breast; UACC-257 melanoma; UO-31 renal.
Holding throughout (experiment): inhibition of tumour cell growth, NCI panel, 48 h

For `COc1ccc(NC2CC(C)N(C(=O)c3ccccc3)O2)cc1` (stereo not drawn), the TGI in the experiment on EKVX NSCLC, with HOP-62 NSCLC, in the experiment with K-562 leukemia, with MALME-3M melanoma, in the experiment on MCF7 breast and in the experiment on NCI-H23 lung was more than 10 µM each time. For the same compound, the TGI with NCI-H522 lung, in the experiment on OVCAR-4 ovarian, with RXF 393 renal, in the experiment with SF-295 CNS, in the experiment on SK-OV-3 ovarian and in the experiment on SN12C renal was more than 10 µM throughout. The TGI in the experiment on SNB-19 CNS, in the experiment with T-47D breast, in the experiment on UACC-257 melanoma and with UO-31 renal was more than 10 µM throughout.

As to `CCc1cc2c(oc3cc(C)ccc32)c(=O)n1C`, the TGI in the experiment on EKVX NSCLC, with K-562 leukemia, with MALME-3M melanoma, with MCF7 breast, in the experiment on NCI-H23 lung and in the experiment on NCI-H522 lung was more than 10 µM each time. For the same compound, the TGI with OVCAR-4 ovarian, with RXF 393 renal, with SF-295 CNS, with SK-OV-3 ovarian, in the experiment on SN12C renal and in the experiment on SNB-19 CNS was more than 10 µM each time. Further, the TGI in the experiment with T-47D breast, in the experiment with UACC-257 melanoma and in the experiment with UO-31 renal was more than 10 µM each time.

As for `FC1=C2CCCCCC2SC1(F)F` (stereo not drawn), the TGI is more than 100 µM in the experiment with EKVX NSCLC; 47.8 µM with K-562 leukemia; 52.4 µM in the experiment on MALME-3M melanoma; more than 100 µM with MCF7 breast; more than 100 µM in the experiment with NCI-H23 lung; 29.2 µM in the experiment with NCI-H522 lung. The TGI was more than 100 µM in the experiment with OVCAR-4 ovarian; 33.2 µM in the experiment with RXF 393 renal; more than 100 µM in the experiment with SF-295 CNS; more than 100 µM in the experiment with SK-OV-3 ovarian; more than 100 µM in the experiment on SNB-19 CNS; more than 100 µM with T-47D breast. The TGI in the experiment with UACC-257 melanoma and in the experiment with UO-31 renal was more than 100 µM in each case.

In the case of `CC1=C(C(=O)OC(C)C)C(c2ccccc2C(F)(F)F)C(C(=O)OC(CO[N+](=O)[O-])CO[N+](=O)[O-])=C(C)N1` (stereo not drawn), the TGI was 70.2 µM in the experiment with EKVX NSCLC; 29.5 µM in the experiment with HOP-62 NSCLC; 41.7 µM in the experiment on K-562 leukemia; 33 µM in the experiment on MALME-3M melanoma; 72.2 µM in the experiment on MCF7 breast; more than 100 µM in the experiment on NCI-H23 lung. Also, the TGI in the experiment with NCI-H522 lung is 14.2 µM; with OVCAR-4 ovarian it was 28.5 µM; with RXF 393 renal, 24.7 µM; in the experiment on SF-295 CNS, 21.8 µM; with SK-OV-3 ovarian, 38.9 µM; in the experiment on SN12C renal it was 32 µM. Moreover, the TGI was more than 100 µM in the experiment with SNB-19 CNS, more than 100 µM in the experiment with T-47D breast and 4.37 µM in the experiment with UO-31 renal.

As to `O=C1Oc2cc3c(c4cccc1c24)O[C@H](c1ccccc1)[C@@H](c1ccccc1)[C@@H]3c1ccc(Cl)cc1`, the TGI with EKVX NSCLC is more than 100 µM; in the experiment on HOP-62 NSCLC it was 42.8 µM; in the experiment with K-562 leukemia, more than 100 µM; with MALME-3M melanoma it was more than 100 µM; with MCF7 breast it was more than 100 µM; in the experiment on NCI-H23 lung, more than 100 µM. Besides, the TGI was more than 100 µM with NCI-H522 lung; more than 100 µM in the experiment with OVCAR-4 ovarian; 40.1 µM with RXF 393 renal; more than 100 µM in the experiment on SF-295 CNS; more than 100 µM in the experiment on SK-OV-3 ovarian; more than 100 µM in the experiment with SN12C renal. The TGI with SNB-19 CNS, in the experiment on T-47D breast and in the experiment on UACC-257 melanoma was more than 100 µM each time.

Turning to `N#Cc1sc2c(c1O)c(=O)n(-c1ccccc1)c(=S)n2-c1ccccc1`, the TGI in the experiment with K-562 leukemia, with MALME-3M melanoma, in the experiment on MCF7 breast, in the experiment with NCI-H23 lung, with NCI-H522 lung and with OVCAR-4 ovarian was more than 100 µM throughout. The TGI in the experiment with RXF 393 renal, in the experiment on SF-295 CNS, in the experiment with SN12C renal, with SNB-19 CNS, with T-47D breast and in the experiment with UACC-257 melanoma was more than 100 µM throughout. Further, the TGI with UO-31 renal was more than 100 µM.

Turning to `CN(C)Cc1cc(C(C)(C)C)cc(C2CCCCC2)c1O`, the TGI in the experiment with EKVX NSCLC is 24.1 µM; with HOP-62 NSCLC, 40 µM; with K-562 leukemia it was 24.5 µM; in the experiment on MALME-3M melanoma, 17.9 µM; in the experiment with MCF7 breast, 36.4 µM; in the experiment on NCI-H23 lung it was 72.2 µM. In addition, the TGI with NCI-H522 lung was 37.2 µM; in the experiment on OVCAR-4 ovarian it was 24.4 µM; in the experiment with RXF 393 renal it was 26.4 µM; in the experiment on SK-OV-3 ovarian, 28.7 µM; in the experiment with SN12C renal it was 29.9 µM; with SNB-19 CNS, 25.6 µM. Further, the results for the TGI in the experiment with T-47D breast, in the experiment on UACC-257 melanoma and in the experiment with UO-31 renal were 21.6 µM, 21.8 µM and 32.5 µM, respectively.

In the case of `C=CCN1CN(c2ccccc2)C2(CCN(CCCC3(c4ccc(F)cc4)OCCO3)CC2)C1=O`, the TGI is 40.1 µM with EKVX NSCLC; 36 µM in the experiment on HOP-62 NSCLC; 25.4 µM with K-562 leukemia; 30.6 µM with MALME-3M melanoma; 30.5 µM in the experiment on MCF7 breast; 30 µM in the experiment on NCI-H23 lung. Further, the TGI in the experiment with NCI-H522 lung worked out at 36.7 µM; in the experiment with RXF 393 renal, 28.1 µM; in the experiment on SF-295 CNS, 33 µM; in the experiment on SK-OV-3 ovarian, 43.3 µM; with SN12C renal, 32 µM; with SNB-19 CNS it was 39.9 µM. Further, the TGI in the experiment on T-47D breast was 40.3 µM; in the experiment with UACC-257 melanoma it was 33.3 µM; with UO-31 renal, 22.3 µM.
